pKi: −log10 of the molar value.
molecular target: T1, human Nox4 (Homo sapiens, UniProt Q9NPH5); assay: ROS production by membranes expressing human Nox4, cell-free Amplex Red assay; format: biochemical; conditions: cell-free membranes, Amplex Red; Cheng-Prusoff; average of at least three experiments in triplicate; read-out: Ki hNox4
T1 construct: expressed in transfected cells; host or cells: T-REx-293 (hNOX4 T-REx-293), tetracycline-induced; membrane fraction
T1 sequence (Q9NPH5 1-578): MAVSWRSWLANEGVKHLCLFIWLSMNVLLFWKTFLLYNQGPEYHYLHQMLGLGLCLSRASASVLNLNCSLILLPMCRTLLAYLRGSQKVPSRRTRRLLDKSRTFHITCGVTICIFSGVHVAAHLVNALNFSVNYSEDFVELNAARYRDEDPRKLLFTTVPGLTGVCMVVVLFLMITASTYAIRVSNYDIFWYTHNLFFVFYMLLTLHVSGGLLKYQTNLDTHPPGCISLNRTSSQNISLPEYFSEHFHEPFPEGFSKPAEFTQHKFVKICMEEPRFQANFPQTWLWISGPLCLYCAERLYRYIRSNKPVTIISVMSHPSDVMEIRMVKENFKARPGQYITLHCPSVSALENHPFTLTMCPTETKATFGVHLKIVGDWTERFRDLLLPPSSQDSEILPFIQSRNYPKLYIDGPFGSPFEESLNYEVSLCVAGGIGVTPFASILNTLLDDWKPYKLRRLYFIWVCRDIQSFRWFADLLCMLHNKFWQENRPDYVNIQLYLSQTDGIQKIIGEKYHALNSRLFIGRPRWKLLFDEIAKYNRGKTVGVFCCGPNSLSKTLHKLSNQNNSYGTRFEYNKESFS
T1 sequence (P13498 2-195 partner limits assumed): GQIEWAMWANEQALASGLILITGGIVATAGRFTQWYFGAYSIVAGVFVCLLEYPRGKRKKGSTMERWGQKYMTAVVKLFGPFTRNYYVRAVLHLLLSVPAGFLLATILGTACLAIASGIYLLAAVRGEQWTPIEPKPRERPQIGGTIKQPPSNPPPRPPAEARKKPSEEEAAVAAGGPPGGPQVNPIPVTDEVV
Excerpt: (§1) The Nox4 activity of Nox4 inhibitors according to the invention may be tested for their activity in the inhibition or reduction of formation of reactive oxygen species (ROS) from oxygen in cell free assays. In order to fully characterise Nox4 inhibitors, Nox subunit-specific cell-free, membrane-based systems have been developed and specific recombinant proteins have been added to membranes heterologously over-expressing their specific iso form. Nox enzymes produce superoxide (O2.−) as primary product, however due to the high instability and reactivity of this molecule which dismutates naturally into hydrogen peroxide (H2O2), therefore, read-out techniques involving probes that do measure H2O2 were used (e.g. using Amplex Red as a probe in order to facilitate consistent and accurate measurements). The activity of the compounds is tested in the following cell free assay using the techniques described here below:
Transfected T-REx™-CHO cells (R718-07) purchased from Invitrogen and T-REx™-293 cell line expressing hNOX4 (hNOX4 T-REx™-293) (Serrander et al., 2007, Biochem. J., 406, 105-114) were cultured in […]. Both media were supplemented with 10% FBS, 2 mM glutamine, penicillin (100 U/ml) and streptomycin (100 μg/ml). Selection pressure was maintained by continuous inclusion of blasticidin (5 μg/ml), and/or G418 (0.25 mg/ml), and/or Hygromycin (0.25 mg/ml) and/or zeocin (0.025 mg/ml).
(§2) Human Nox1, Nox2, Nox4, and Nox5 expression were induced with Tetracycline (1 μg/ml) during 24 h prior to the membrane preparation Membranes from transfected cells overexpressing Nox1, Nox2, Nox4 or Nox5 were prepared as previously described in Palicz et al., 2001, J. Biol. Chem., 76, 3090-3097. After resuspension in sonication buffer (11% sucrose, 120 mM NaCl, 1 mM EGTA in PBS, pH 7.4 for Nox4- or NOX5-expressing cells) or in relax buffer (10 mM Pipes, 3 mM NaCl, 3.5 mM MgCl2, 0.1M KCl, pH 7.4), cells were broken by sonication and centrifuged (200 g, 10 min). The supernatant was layered onto a 17/40% (w/v) discontinuous sucrose gradient and centrifuged (150,000×g for 60 min). Membrane fractions were collected from the 17/40% interface and were stored at −80° C. Protein concentration was determined with the Bradford reagent.
(§3) Reactive Oxygen Species (ROS) production by membranes expressing either human Nox1, or human Nox2 or human Nox4 or human Nox5 or by xanthine/xanthine oxidase were measured using the Amplex Red (AR) method following a slightly modified version of the manufacturer's instruction manual (Invitrogen). Briefly, membranes or xanthine were incubated in PBS with Amplex Red, Horse Radish Peroxidase (HRP) and appropriated co-factors. ROS production was induced by addition of NADPH to NOX-expressing membrane or by addition of xanthine to xanthine oxidase. Non-specific signal was measured in the absence of membranes or in the absence of xanthine.
Antagonist activity of compounds was measured in the presence of increasing concentrations ranging from 1 nM to 100 μM. After an incubation of 20 min in a plate shaker and incubator (Titramax 1000, VWR) at 37° C. with weak agitation (300 rpm), ROS levels were measured for 10 min in a BMG Fluostar microplate reader with excitation and emission wavelengths of 544 nm and 590 nm respectively.
Data were analysed using Prism (GraphPad Software Inc., San Diego, Calif.). Ki values were calculated using the Cheng-Prusoff equation and represent the average of at least three individual experiments performed in triplicate (Table 1). Nox4 inhibition was compared to that measured for Simvastatin (Enzo Life Sciences, CAS Number 79902-63-9) using the method described in Example 1. Reactive Oxygen Species (ROS) production by membranes expressing human Nox4 was measured using the Amplex Red (AR).

SMILES	pKi
COc1ccc(-c2c3c(=O)n(-c4ccccc4Cl)[nH]c3cc(=O)n2Cc2cnccn2)cc1 [(2), 2-(2-chlorophenyl)-4-(4-methoxyphenyl)-5-(pyrazin-2-ylmethyl)-1H-pyrazolo[4,3-c]pyridine-3,6(2H,5H)-dione]	7.32
COc1ccccc1-n1[nH]c2cc(=O)n(Cc3cnccn3)c(-c3ccc(Cl)cc3)c2c1=O [(3), 4-(4-chlorophenyl)-2-(2-methoxyphenyl)-5-(pyrazin-2-ylmethyl)-1H-pyrazolo[4,3-c]pyridine-3,6(2H,5H)-dione]	7.24
O=c1c2c(-c3cc(Cl)ccc3F)n(Cc3ccncc3)c(=O)cc2[nH]n1-c1ccccc1Cl [(12), 4-(5-chloro-2-fluorophenyl)-2-(2-chlorophenyl)-5-(pyridin-4-ylmethyl)-1H-pyrazolo[4,3-c]pyridine-3,6(2H,5H)-dione]	7.10
COc1cccc(-c2c3c(=O)n(-c4ccccc4OC)[nH]c3cc(=O)n2Cc2ccn(C)n2)c1 [(20), 2-(2-methoxyphenyl)-4-(3-methoxyphenyl)-5-[(1-methyl-1H-pyrazol-3-yl)methyl]-1H-pyrazolo[4,3-c]pyridine-3,6(2H,5H)-dione]	7.03
COc1ccc(-c2c3c(=O)n(-c4ccccc4OC)[nH]c3cc(=O)n2Cc2ccn(C)n2)cc1 [(23), 2-(2-methoxyphenyl)-4-(4-methoxyphenyl)-5-[(1-methyl-1H-pyrazol-3-yl)methyl]-1H-pyrazolo[4,3-c]pyridine-3,6(2H,5H)-dione]	7.01
COc1cccc(-c2c3c(=O)n(-c4ccccc4OC)[nH]c3cc(=O)n2Cc2cccnc2)c1 [(24), 2-(2-methoxyphenyl)-4-(3-methoxyphenyl)-5-(pyridin-3-ylmethyl)-1H-pyrazolo[4,3-c]pyridine-3,6(2H,5H)-dione]	7.00
O=c1c2c(-c3c(F)cccc3F)n(Cc3ccncc3)c(=O)cc2[nH]n1-c1ccccc1Cl [(28), 2-(2-chlorophenyl)-4-(2,6-difluorophenyl)-5-(pyridin-4-ylmethyl)-1H-pyrazolo[4,3-c]pyridine-3,6(2H,5H)-dione]	6.96
O=c1c2c(-c3cccc(Cl)c3F)n(Cc3ccncc3)c(=O)cc2[nH]n1-c1ccccc1Cl [(31), 4-(3-chloro-2-fluorophenyl)-2-(2-chlorophenyl)-5-(pyridin-4-ylmethyl)-1H-pyrazolo[4,3-c]pyridine-3,6(2H,5H)-dione]	6.95
COc1ccc(-c2c3c(=O)n(-c4ccccc4OC)[nH]c3cc(=O)n2Cc2cccnc2)cc1 [(33), 2-(2-methoxyphenyl)-4-(4-methoxyphenyl)-5-(pyridin-3-ylmethyl)-1H-pyrazolo[4,3-c]pyridine-3,6(2H,5H)-dione]	6.94
O=c1c2c(-c3cccc(Cl)c3F)n(Cc3cccnc3)c(=O)cc2[nH]n1-c1ccccc1Cl [(38), 4-(3-chloro-2-fluorophenyl)-2-(2-chlorophenyl)-5-(pyridin-3-ylmethyl)-1H-pyrazolo[4,3-c]pyridine-3,6(2H,5H)-dione]	6.89
O=c1c2c(-c3c(F)cccc3F)n(Cc3cccnc3)c(=O)cc2[nH]n1-c1ccccc1Cl [(40), 2-(2-chlorophenyl)-4-(2,6-difluorophenyl)-5-(pyridin-3-ylmethyl)-1H-pyrazolo[4,3-c]pyridine-3,6(2H,5H)-dione]	6.83
COc1ccc(F)c(-c2c3c(=O)n(-c4ccccc4OC)[nH]c3cc(=O)n2Cc2cnccn2)c1 [(41), 4-(2-fluoro-5-methoxyphenyl)-2-(2-methoxyphenyl)-5-(pyrazin-2-ylmethyl)-1H-pyrazolo[4,3-c]pyridine-3,6(2H,5H)-dione]	6.83
CN(C)c1cccc(-c2c3c(=O)n(-c4ccccc4Cl)[nH]c3cc(=O)n2Cc2ccn(C)n2)c1 [(43), 2-(2-chlorophenyl)-4-[3-(dimethylamino)phenyl]-5-[(1-methyl-1H-pyrazol-3-yl)methyl]-1H-pyrazolo[4,3-c]pyridine-3,6(2H,5H)-dione]	6.90

molecular target: T2, human Nox2 (Homo sapiens, UniProt P04839); assay: ROS production by membranes expressing human Nox2, cell-free Amplex Red assay; format: biochemical; conditions: cell-free membranes, Amplex Red; Cheng-Prusoff; average of at least three experiments in triplicate; read-out: Ki hNox2
T2 construct: host or cells: T-REx-CHO (hNOX2 T-REx-CHO), tetracycline-induced; membrane fraction
T2 sequence (P04839 2-570 limits assumed): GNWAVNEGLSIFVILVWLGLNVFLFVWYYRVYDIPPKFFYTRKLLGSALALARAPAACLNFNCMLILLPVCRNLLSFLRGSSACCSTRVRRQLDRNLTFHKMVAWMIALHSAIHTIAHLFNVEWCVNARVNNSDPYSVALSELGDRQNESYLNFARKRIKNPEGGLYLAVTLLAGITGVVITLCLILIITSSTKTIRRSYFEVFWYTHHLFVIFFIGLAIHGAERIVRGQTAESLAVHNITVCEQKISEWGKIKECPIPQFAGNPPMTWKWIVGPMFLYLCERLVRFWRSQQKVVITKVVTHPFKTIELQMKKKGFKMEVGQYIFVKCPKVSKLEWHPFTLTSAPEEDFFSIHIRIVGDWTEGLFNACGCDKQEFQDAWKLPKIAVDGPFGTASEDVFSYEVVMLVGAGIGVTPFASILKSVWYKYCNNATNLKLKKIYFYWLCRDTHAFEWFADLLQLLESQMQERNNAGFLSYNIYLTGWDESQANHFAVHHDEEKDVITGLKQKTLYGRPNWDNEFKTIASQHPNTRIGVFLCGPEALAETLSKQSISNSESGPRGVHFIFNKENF
T2 sequence (P13498 2-195 partner limits assumed): T1 sequence (P13498 2-195 partner limits assumed)
Excerpt: as §1
Human Nox1 (NM_007052.4), human NOX2 (NM_000397), and human NOX5 (NM_0245052244) cDNAs were cloned into the pcDNA5/TO (Invitrogen). Human p22 (NM_000101.2) was cloned into pcDNA3.1/Zeo (+) (Invitrogen), and human NOXA1 (AY255769.1) and human NOXO1 (AB097667) were cloned into the bi-cistronic pVITRO1-neo-mcs plasmid (Invivogen).
Cells were transfected by using the FuGENE 6 method. Cells stably expressing functional human Nox1 (hNOX1 T-REx™-CHO) were obtained by co-transfecting T-REx™-CHO cells with human Nox1, human p22, human NOXA1 and human NOXO1. Cells stably expressing functional human Nox2 (hNOX2 T-REx™-CHO) were obtained by co-transfecting T-REx™-CHO cells with human nox2, human p22 and human cofactors. Cells stably expressing functional human Nox5 (hNOX5 T-REx™-CHO) were obtained by transfecting T-REx™-CHO cells with human Nox5. Co-transfected cells were selected with the appropriate antibiotics for 10 days. For the selection, hygromycin and G418 were used at 2 mg/ml and zeocin at 0.1 mg/ml. For the establishment of each stably transfected cell line, a pool of antibiotic-resistant cells was generated. Cells were cloned by limiting dilution. Several clones were established and investigated for ROS production upon tetracycline-induced hNox expression using a cellular AR assay. The expression of NOXes was done with tetracycline (1 μg/ml) during 24 h prior to the assay.
as §2, §3
Antagonist activity of compounds was measured in the presence of increasing concentrations ranging from 1 nM to 100 μM. […]

SMILES	pKi
COc1ccc(-c2c3c(=O)n(-c4ccccc4Cl)[nH]c3cc(=O)n2Cc2cnccn2)cc1 [(2), 2-(2-chlorophenyl)-4-(4-methoxyphenyl)-5-(pyrazin-2-ylmethyl)-1H-pyrazolo[4,3-c]pyridine-3,6(2H,5H)-dione]	6.17
COc1ccccc1-n1[nH]c2cc(=O)n(Cc3cnccn3)c(-c3ccc(Cl)cc3)c2c1=O [(3), 4-(4-chlorophenyl)-2-(2-methoxyphenyl)-5-(pyrazin-2-ylmethyl)-1H-pyrazolo[4,3-c]pyridine-3,6(2H,5H)-dione]	6.13
